Literature values as cited in paper PMC9329312, “Decoding kinase-adverse event associations for small molecule kinase inhibitors” (Nature Communications, 2022).

Conditions: ref FAERS

SMILES: CCOc1cc2ncc(C#N)c(Nc3ccc(OCc4ccccn4)c(Cl)c3)c2cc1NC(=O)/C=C/CN(C)C [neratinib]
- Drug resistance, % of Cases: 0.15%
- Drug titration, % of Cases: 2.1%
- Dry eye, % of Cases: 0.3%
- Dry mouth, % of Cases: 2.7%
- Dry skin, % of Cases: 2.0%
- Dry throat, % of Cases: 0.075%
- Duodenal ulcer, % of Cases: 0.15%
- Dysarthria, % of Cases: 0.075%
- Dysgeusia, % of Cases: 0.45%
- Dyspepsia, % of Cases: 4.4%
- Dysphagia, % of Cases: 0.5%
- Dysphemia, % of Cases: 0.075%
- Dysphonia, % of Cases: 0.15%
- Dyspnoea exertional, % of Cases: 0.075%
- Dyspnoea, % of Cases: 1.7%
- Dysstasia, % of Cases: 0.075%
- Dysuria, % of Cases: 0.75%
- Ear infection, % of Cases: 0.15%
- Ear pain, % of Cases: 0.075%
- Early satiety, % of Cases: 0.225%
- Eating disorder, % of Cases: 0.15%
- Ecchymosis, % of Cases: 0.075%
- Eczema, % of Cases: 0.075%
- Ejection fraction decreased, % of Cases: 0.15%
- Electrocardiogram QT prolonged, % of Cases: 0.075%
- Electrolyte imbalance, % of Cases: 0.225%
- Emergency care, % of Cases: 0.7%
- Energy increased, % of Cases: 0.075%
- Enteritis, % of Cases: 0.075%
- Eosinophil count increased, % of Cases: 0.075%
- Epinephrine abnormal, % of Cases: 0.075%
- Epistaxis, % of Cases: 1.2%
- Eructation, % of Cases: 0.375%
- Erythema, % of Cases: 0.5%
- Escherichia sepsis, % of Cases: 0.075%
- Escherichia urinary tract infection, % of Cases: 0.075%
- Exfoliative rash, % of Cases: 0.075%
- Eye discharge, % of Cases: 0.225%
- Eye infection, % of Cases: 0.075%
- Eye irritation, % of Cases: 0.075%
- Eye pain, % of Cases: 0.075%
- Eye pruritus, % of Cases: 0.15%
- Eyelid margin crusting, % of Cases: 0.075%
- Facial pain, % of Cases: 0.075%
- Facial paralysis, % of Cases: 0.075%
- Faecaloma, % of Cases: 0.075%
- Faeces discoloured, % of Cases: 0.075%
- Faeces hard, % of Cases: 0.075%
- Faeces pale, % of Cases: 0.225%
- Faeces soft, % of Cases: 0.45%
- Failure to thrive, % of Cases: 0.075%
- Fall, % of Cases: 0.75%
- Fatigue, % of Cases: 25.2%
- Febrile neutropenia, % of Cases: 0.075%
- Feeding disorder, % of Cases: 0.375%
- Feeling abnormal, % of Cases: 1.5%
- Feeling jittery, % of Cases: 0.15%
- Fibromyalgia, % of Cases: 0.075%
- Flank pain, % of Cases: 0.075%
- Flatulence, % of Cases: 1.7%
- Fluid retention, % of Cases: 0.225%
- Flushing, % of Cases: 0.075%
- Food aversion, % of Cases: 0.075%
- Food craving, % of Cases: 0.075%
- Food poisoning, % of Cases: 0.075%
- Fracture, % of Cases: 0.075%
- Frustration tolerance decreased, % of Cases: 0.075%
- Full blood count abnormal, % of Cases: 0.225%
- Fungal infection, % of Cases: 0.075%
- Furuncle, % of Cases: 0.075%
- Gait disturbance, % of Cases: 0.5%
- Gait inability, % of Cases: 0.075%
- Gastric cancer stage IV, % of Cases: 0.075%
- Gastric dilatation, % of Cases: 0.075%
- Gastric disorder, % of Cases: 0.3%
- Gastric neoplasm, % of Cases: 0.075%
- Gastric ulcer haemorrhage, % of Cases: 0.075%
- Gastritis, % of Cases: 0.3%
- Gastroenteritis norovirus, % of Cases: 0.075%
- Gastroenteritis viral, % of Cases: 0.375%
- Gastroenteritis, % of Cases: 0.075%
- Gastrointestinal disorder, % of Cases: 0.225%
- Gastrointestinal haemorrhage, % of Cases: 0.075%
- Gastrointestinal infection, % of Cases: 0.075%
- Gastrointestinal perforation, % of Cases: 0.075%
- Gastrointestinal sounds abnormal, % of Cases: 0.5%
- Gastrooesophageal reflux disease, % of Cases: 2.7%
- Gastrostomy, % of Cases: 0.075%
- Gingival bleeding, % of Cases: 0.075%
- Gingivitis, % of Cases: 0.075%
- Glomerular filtration rate decreased, % of Cases: 0.225%
- Glossodynia, % of Cases: 0.075%
- Glycosylated haemoglobin increased, % of Cases: 0.075%
- Gout, % of Cases: 0.075%
- Groin pain, % of Cases: 0.075%
- Haematemesis, % of Cases: 0.3%
- Haematochezia, % of Cases: 0.6%
- Haematocrit decreased, % of Cases: 0.075%
- Haemoglobin abnormal, % of Cases: 0.075%
- Haemoglobin decreased, % of Cases: 0.45%
- Haemorrhage, % of Cases: 0.375%
- Haemorrhoidal haemorrhage, % of Cases: 0.075%
- Haemorrhoids, % of Cases: 0.15%
- Hair growth abnormal, % of Cases: 0.15%
- Hair growth rate abnormal, % of Cases: 0.075%
- Hair texture abnormal, % of Cases: 0.075%
- Hallucination, % of Cases: 0.075%
- Head and neck cancer, % of Cases: 0.075%
- Head discomfort, % of Cases: 0.075%
- Headache, % of Cases: 5.4%
- Heart rate decreased, % of Cases: 0.075%
- Heart rate increased, % of Cases: 0.5%
- Helicobacter infection, % of Cases: 0.075%
- Hepatic cyst, % of Cases: 0.075%
- Hepatic enzyme abnormal, % of Cases: 0.075%
- Hepatic enzyme increased, % of Cases: 1.5%
- Hepatic failure, % of Cases: 0.15%
- Hepatic function abnormal, % of Cases: 0.075%
- Hepatic steatosis, % of Cases: 0.075%
- Hepatitis, % of Cases: 0.3%
- Hepatomegaly, % of Cases: 0.075%
- Hepatotoxicity, % of Cases: 0.075%
- Hernia, % of Cases: 0.075%
- Herpes zoster, % of Cases: 0.15%
- Hiccups, % of Cases: 0.15%
- Hip arthroplasty, % of Cases: 0.075%
- Hordeolum, % of Cases: 0.15%
- Hospice care, % of Cases: 0.7%
- Hospitalisation, % of Cases: 5.3%
- Hot flush, % of Cases: 0.6%
- Human epidermal growth factor receptor negative, % of Cases: 0.075%
- Hydrocephalus, % of Cases: 0.075%
- Hyperbilirubinaemia, % of Cases: 0.075%
- Hyperchlorhydria, % of Cases: 0.15%
- Hyperglycaemia, % of Cases: 0.225%
- Hyperhidrosis, % of Cases: 0.075%
- Hypersensitivity, % of Cases: 0.5%
- Hypersomnia, % of Cases: 0.075%
- Hypertension, % of Cases: 0.15%
- Hypoaesthesia oral, % of Cases: 0.15%
- Hypoaesthesia, % of Cases: 1.0%
- Hypogeusia, % of Cases: 0.075%
- Hypokalaemia, % of Cases: 0.45%
- Hypomagnesaemia, % of Cases: 0.075%
- Hyponatraemia, % of Cases: 0.075%
- Hypophagia, % of Cases: 0.15%
- Hypophosphataemia, % of Cases: 0.075%
- Hypotension, % of Cases: 0.6%
- Hypovolaemia, % of Cases: 0.075%
- Hypoxia, % of Cases: 0.15%
- Hysterectomy, % of Cases: 0.15%
- Illness, % of Cases: 1.7%
- Impaired driving ability, % of Cases: 0.075%
- Impaired healing, % of Cases: 0.15%
- Impaired quality of life, % of Cases: 0.375%
- Implantable defibrillator insertion, % of Cases: 0.075%
- Inappropriate schedule of product administration, % of Cases: 0.45%
- Incision site abscess, % of Cases: 0.075%
- Incorrect dosage administered, % of Cases: 0.075%
- Incorrect dose administered, % of Cases: 1.7%
- Increased appetite, % of Cases: 0.075%
- Infection, % of Cases: 0.6%
- Influenza like illness, % of Cases: 0.3%
- Influenza, % of Cases: 0.7%
- Infrequent bowel movements, % of Cases: 0.075%
- Insomnia, % of Cases: 1.2%
- Intensive care, % of Cases: 0.075%
- Intentional dose omission, % of Cases: 0.225%
- Intentional product use issue, % of Cases: 0.15%
- Intentional underdose, % of Cases: 0.15%
- Intervertebral disc protrusion, % of Cases: 0.075%
- Intestinal haemorrhage, % of Cases: 0.075%
- Intestinal obstruction, % of Cases: 0.075%
